Legend:
[1] = Heavy metal removal ability test in contaminated soil (ICP-MS), arsenic; details: for Arsenic (As) Adsorption amount: contaminated soil; for Arsenic (As) Adsorption rate: relative to EDTA control
Protocol: (§1) (1) Preparation of Soil Contaminated with Heavy Metal
(§2) After collecting and pulverizing uncontaminated soil, fine particles obtained by using a mesh were mixed with the aqueous heavy metal solution to prepare soil samples contaminated with heavy metals.
(§3) Each 3 ml of the prepared aqueous solution was added to a soil sample contaminated with heavy metals and mixed for 5 minutes.
(§4) 50 ml of distilled water was added to the contaminated soil mixed with the aqueous solution for restoring soil, stirred for 20 minutes, and settled for 1 hour, and a supernatant was prepared as a sample solution.
(§5) The prepared sample solution was analyzed for the heavy metal component using an Inductively Coupled Plasma Mass Spectrometer (ICP-MS) (Xseries™ 2, Thermo Fisher Scientific, UK).
(§6) Adsorption rate of heavy metals (%)=(Adsorption amount of Embodiment/Adsorption amount of Control)×100 Equation 1

[2] = Heavy metal removal ability test in contaminated soil (ICP-MS), cadmium; details: for Cadmium (Cd) Adsorption amount: contaminated soil; for Cadmium (Cd) Adsorption rate: relative to EDTA control
Protocol: as §1, §2, §3, §4, §5, §6

[3] = Heavy metal removal ability test in contaminated soil (ICP-MS), nickel; details: for Nickel (Ni) Adsorption amount: contaminated soil; for Nickel (Ni) Adsorption rate: relative to EDTA control
Protocol: as §1, §2, §3, §4, §5, §6

human skin = assay: Skin irritation test of active ingredient (patch method, CTFA guidelines); assay type: in vivo; details: 24 h patch; for Test result (number of subject) (+) / Test result (number of subject) (++) / Test result (number of subject) (±) / Test result (number of subject) (−): 20 people; for Test result (number of subject) (+): (+) apparent reddening; for Test result (number of subject) (++): (++) more reddened and swollen; for Test result (number of subject) (±): (±) slightly reddish; for Test result (number of subject) (−): (−) no erythema
Protocol: A filter paper disk was placed in an 8 mm diameter, 10 panels of pin chamber.
After 24 hours, the pin chamber was removed, and skin conditions were visually observed. The degree and grade for skin irritation were calculated according to the following Equation 2, and the results are shown in Table 4 below.
[Criteria for Skin Irritation]
(−): No erythema or particularly no symptoms; (±): slightly reddish than the periphery; (+): Apparent reddening than periphery; (++): More reddened and swollen than periphery.
[Grade for Skin Irritation]
Degree of irritation 0-0.1: Grade I (unstimulated);
Degree of irritation 0.11-0.3: Grade II (weakly stimulated);
Degree of irritation 0.31-0.5: Grade III (moderately stimulated);
Degree of irritation 0.51 or more: Grade IV (strongly stimulated)

[4] = Formaldehyde (formalin) removing ability test (GC); details: 2.0% formaldehyde solution, 3 molar equivalents of compound, room temperature; for Formaldehyde GC Area, 30 min: after 30 min; for Formaldehyde GC Area, 180 min: after 180 min; for Formaldehyde GC Area, Initial: initial state
[5] = Heavy metal removal ability test in contaminated soil around a factory (WAK-Me test kit); details: 1.0 wt % aqueous solution, colour comparison test kit
Protocol: The contaminated soil around the factory in the industrial complex was collected, pulverized, and meshed to prepare fine particles of soil samples.
Each 3 ml of aqueous solutions for restoring soil was added to soil samples and mixed for 5 minutes.

Row | SMILES | Arsenic (As) Adsorption amount ([1]; content 0.5% aqueous solution) [ppm] | Arsenic (As) Adsorption rate ([1]; content 0.5%) [%] | Arsenic (As) Adsorption amount ([1]; content 1.0% aqueous solution) [ppm] | Arsenic (As) Adsorption rate ([1]; content 1.0%) [%] | Arsenic (As) Adsorption amount ([1]; content 2.0% aqueous solution) [ppm] | Arsenic (As) Adsorption rate ([1]; content 2.0%) [%] | Cadmium (Cd) Adsorption amount ([2]; content 0.5% aqueous solution) [ppm] | Cadmium (Cd) Adsorption rate ([2]; content 0.5%) [%] | Cadmium (Cd) Adsorption amount ([2]; content 1.0% aqueous solution) [ppm] | Cadmium (Cd) Adsorption rate ([2]; content 1.0%) [%] | Cadmium (Cd) Adsorption amount ([2]; content 2.0% aqueous solution) [ppm] | Cadmium (Cd) Adsorption rate ([2]; content 2.0%) [%] | Nickel (Ni) Adsorption amount ([3]; content 0.5% aqueous solution) [ppm] | Nickel (Ni) Adsorption rate ([3]; content 0.5%) [%] | Nickel (Ni) Adsorption amount ([3]; content 1.0% aqueous solution) [ppm] | Nickel (Ni) Adsorption rate ([3]; content 1.0%) [%] | Nickel (Ni) Adsorption amount ([3]; content 2.0% aqueous solution) [ppm] | Nickel (Ni) Adsorption rate ([3]; content 2.0%) [%] | Test result (number of subject) (+) (human skin; content 0.1 wt %) | Test result (number of subject) (++) (human skin; content 0.1 wt %) | other results
1 | C1CNCCNCCNCCN1 [Cyclen, 1,4,7,10-tetraazacyclododecane] | 42 | 168 | 49 | 196 | 51 | 204 | 69 | 168 | 74 | 180 | 81 | 198 | 91 | 186 | 93 | 190 | 98 | 200 | 0 | 0 | Test result (number of subject) (±) (human skin; content 0.1 wt %): 0; Test result (number of subject) (−) (human skin; content 0.1 wt %): 20; Degree of irritation (human skin; content 0.1 wt %): 0; Grade for skin irritation (human skin; content 0.1 wt %): I (Degree of irritation 0-0.1: Grade I (unstimulated)); Test result (number of subject) (+) (human skin; content 0.5 wt %): 0; Test result (number of subject) (++) (human skin; content 0.5 wt %): 0; Test result (number of subject) (±) (human skin; content 0.5 wt %): 0; Test result (number of subject) (−) (human skin; content 0.5 wt %): 20; Degree of irritation (human skin; content 0.5 wt %): 0; Grade for skin irritation (human skin; content 0.5 wt %): I (Degree of irritation 0-0.1: Grade I (unstimulated)); Test result (number of subject) (+) (human skin; content 1.0 wt %): 1; Test result (number of subject) (++) (human skin; content 1.0 wt %): 0; Test result (number of subject) (±) (human skin; content 1.0 wt %): 1; Test result (number of subject) (−) (human skin; content 1.0 wt %): 18; Degree of irritation (human skin; content 1.0 wt %): 0.15; Grade for skin irritation (human skin; content 1.0 wt %): II (Degree of irritation 0.11-0.3: Grade II (weakly stimulated)); Formaldehyde GC Area, 30 min [4]: 0.181 mAU*min; Formaldehyde GC Area, 180 min [4]: 0 mAU*min; Formaldehyde GC Area, Initial [4]: 0.305 mAU*min; Total amount (Cu, Zn, Mn, Ni, Cd) [5]: ≤5 ppm
2 | O=C(O)CN1CCCN(CC(=O)O)CCN(CC(=O)O)CCCN(CC(=O)O)CC1 [Embodiment 9, 2,2′,2″,2′″-(1,4,8,11-tetraazacyclotetradecane-1,4,8,11-tetrayl)tetraacetic Acid] | 42 | 168 | 46 | 184 | 48 | 192 | 61 | 149 | 66 | 161 | 70 | 171 | 76 | 155 | 85 | 173 | 96 | 196 | 0 | 0 | Test result (number of subject) (±) (human skin; content 0.1 wt %): 0; Test result (number of subject) (−) (human skin; content 0.1 wt %): 20; Degree of irritation (human skin; content 0.1 wt %): 0; Grade for skin irritation (human skin; content 0.1 wt %): I (Degree of irritation 0-0.1: Grade I (unstimulated)); Test result (number of subject) (+) (human skin; content 0.5 wt %): 0; Test result (number of subject) (++) (human skin; content 0.5 wt %): 0; Test result (number of subject) (±) (human skin; content 0.5 wt %): 0; Test result (number of subject) (−) (human skin; content 0.5 wt %): 20; Degree of irritation (human skin; content 0.5 wt %): 0; Grade for skin irritation (human skin; content 0.5 wt %): I (Degree of irritation 0-0.1: Grade I (unstimulated)); Test result (number of subject) (+) (human skin; content 1.0 wt %): 0; Test result (number of subject) (++) (human skin; content 1.0 wt %): 0; Test result (number of subject) (±) (human skin; content 1.0 wt %): 2; Test result (number of subject) (−) (human skin; content 1.0 wt %): 18; Degree of irritation (human skin; content 1.0 wt %): 0.10; Grade for skin irritation (human skin; content 1.0 wt %): I (Degree of irritation 0-0.1: Grade I (unstimulated)); Formaldehyde GC Area, 30 min [4]: 0.182 mAU*min; Formaldehyde GC Area, 180 min [4]: 0 mAU*min; Formaldehyde GC Area, Initial [4]: 0.305 mAU*min; Total amount (Cu, Zn, Mn, Ni, Cd) [5]: ≤5 ppm

Reference: patent publication US20210207064A1, “COMPOUND FOR RESTORING CONTAMINATED SOIL OR CONTAMINATED WATER” (FNG RESEARCH CO., LTD., priority 2018, published 2021)
